Consider one molecule from US12390470B2, “1-methylxanthine-based bioactive composition and method of use thereof” (Ingenious Ingredients, LP, priority 2021, dated 2025).

Holding throughout (type): in vivo
Experiment [1] deals with Swiss Albino Wistar rats. The experiment can be described thus: Morris water maze test in young and old rats. The conditions noted are these: HED 100 mg 1-MX (+25 mg PX). As for the experimental part:
(§1) Twenty-four young (6-8 Week) and twenty-four old (14-16 Months) Swiss Albino Wistar rats were housed in an animal room at a constant temperature (22±3° C.) and humidity (30%-70%) under a 12:12 h light-dark cycle with standard laboratory diet (Purina 5L79, Rat and Mouse 18% protein; PMI Nutrition International, Brentwood, MO, USA). Distilled water was provided ad libitum. All animal experiments were reviewed and approved by the Institutional Animal Ethical Committee (IAEC) of Radiant Research Services Pvt. Ltd (Bangalore, India). All research was conducted in accordance with the guidelines of the committee for the purpose of control and supervision of experiments on animals.
(§2) After one week of acclimation, the animals were randomly divided by body weight and age into six groups (n=8 per group in each test) for oral treatment once a day, at approximately same time each day (±1 hour), for 10 consecutive days: (1) vehicle control or (2) 1-methylxanthine or (3) 1-methylxanthine plus paraxanthine. The dose administered to the rat was calculated using US Food and Drug Administration for human equivalence doses (HED), assuming a human weight of 60 kg. […] Food intake was monitored daily while water intake was ad libitum. […] Body weight was recorded weekly. […]

Experiment [2] deals with glutathione. The experiment can be described thus: Glutathione level in young and old rats. The method, then:
as §1, §2

The subject of experiment [3] is male Swiss Albino mice. The experiment in a line: Forelimb grip strength test. The method, then: as §1, with “8-week-old male” for “young (6-8 Week) and twenty-four old (14-16 Months)”, “mice” for “Wistar rats”
After one week of acclimation, the animals were randomly divided by body weight into three groups (n=8 per group in each test) for oral treatment once a day, at approximately same time each day (±1 hour), for 28 consecutive days: (1) vehicle control or (2) 1-methylxanthine or (3) 1-methylxanthine plus paraxanthine. The dose administered to the mice was calculated using US Food and Drug Administration for human equivalence doses (HED), assuming a human weight of 60 kg. The following HED was used in this study: 100 mg 1-methylxanthine (Ingenious Ingredients, L.P Lewisville, TX, USA; mouse dose: 20.5 mg/kg bw/day), or 100 mg 1-methylxanthine (Ingenious Ingredients, L.P Lewisville, TX, USA; mouse dose: 20.5 mg/kg bw/day) plus 100 mg paraxanthine (ENFINITY™, Ingenious Ingredients, L.P Lewisville, TX, USA; mouse dose: 20.5 mg/kg bw/day). 0.5% Carboxy Methyl Cellulose sodium was used as vehicle and the test item formulations were prepared daily. […] Food intake was monitored daily while water intake was ad libitum. BW was recorded weekly. […]
The forelimb grip strength was measured on day 0 and day 28 by using a stainless-steel grill to assess muscle strength (Orchid Scientific & Innovative India Pvt Ltd, India). Grip strength was measured one hour after treatment. […] Each animal performed three independent trials and the mean of the three trials was calculated and recorded.

Experiment [4] has as its system male Swiss Albino mice. The experiment in a line: Treadmill endurance test. As for the experimental part: as §1, with “8-week-old male” for “young (6-8 Week) and twenty-four old (14-16 Months)”, “mice” for “Wistar rats”
After one week of acclimation, the animals were randomly divided by body weight into three groups (n=8 per group in each test) for oral treatment once a day, at approximately same time each day (±1 hour), for 28 consecutive days: (1) vehicle control or (2) 1-methylxanthine or (3) 1-methylxanthine plus paraxanthine. The dose administered to the mice was calculated using US Food and Drug Administration for human equivalence doses (HED), assuming a human weight of 60 kg. The following HED was used in this study: 100 mg 1-methylxanthine (Ingenious Ingredients, L.P Lewisville, TX, USA; mouse dose: 20.5 mg/kg bw/day), or 100 mg 1-methylxanthine (Ingenious Ingredients, L.P Lewisville, TX, USA; mouse dose: 20.5 mg/kg bw/day) plus 100 mg paraxanthine (ENFINITY™, Ingenious Ingredients, L.P Lewisville, TX, USA; mouse dose: 20.5 mg/kg bw/day). 0.5% Carboxy Methyl Cellulose sodium was used as vehicle and the test item formulations were prepared daily. Dosing was conducted via oral gavage using disposable polypropylene syringes with sterilized stainless steel gavage tubes. Food intake was monitored daily while water intake was ad libitum. BW was recorded weekly. […]
On 28th day of each respective treatment, all animals were subjected to a muscle endurance test. […] Distance traveled (cm) was measured as a marker of exercise performance.

Where “and” joins values, the source holds several entries; their conditions need not be identical. Equal values may be shown once.

For `Cn1c(=O)[nH]c2nc[nH]c2c1=O` [1-methylxanthine, 1-Methyl-3H-purine-2,6-dione], the “Escape latency, Morris water maze” value came to 41.71 ± 1.81 s in experiment [1] (old rats) and 32.18 ± 1.10 s in experiment [1] (young rats). In addition, the glutathione levels was 25.29 ± 0.93 µg/mL in experiment [2] (old rats); 28.57 ± 1.36 µg/mL and 28.57 ± 1.65 µg/mL in experiment [2] (young rats, listed as 1-MX). For the same molecule, the Forelimb grip strength in experiment [3] (baseline) was 91.1±1.3 gf; in experiment [3] (day 28, oral 20.5 mg/kg bw/day each, 28 days, with exercise training), 126.9±6.0 gf. Also, the “changes in strength greater than control” value in experiment [3] (baseline to day 28) came out at 15.9%. In addition, the “Distance travelled on treadmill” value in experiment [4] (baseline) is listed as 269.6±33.0 cm; in experiment [4] (day 28, oral 20.5 mg/kg bw/day each, 28 days), 1,641.3±74.6 cm. The “changes in treadmill performance greater than control” value in experiment [4] (baseline to day 28) amounted to 10.0%.
